Key:
Format in all cases: cell-based
[1] = molecular target: T1, NPFFR2 mutants (Homo sapiens, UniProt Q9Y5X5, D207A); assay: GloSensor forskolin-stimulated cAMP assay, NPFFR2 mutants; settings: NPFFR2 D1052.64A, HEK293T, three independent experiments
T1 construct: expressed in transfected cells; host or cells: HEK293T (pcDNA3.1 NPFFR2 mutants)
From the text: (§1) Figure 2 Interaction of hNPSF with NPFFR2. (A) Residues participating in the interactions between hNPSF and NPFFR2 in the transmembrane (TM) binding pocket are shown as sticks. Dashed lines indicate polar interactions and hydrogen bonds between residues. Zoomed-in views highlighting interactions of the C-terminal segment (residues −1 to −4, PQRF), middle segment (residues −5 to −8, FLFQ), and the N-terminal segment (residues −9 to −11, SQA) of hNPSF are enclosed in red, blue, and yellow boxes, respectively. (B) NPFFR2 residues interacting with hNPSF were mutated to alanine, and the impact of each mutation on the EC50 value (ΔpEC50) was investigated using a forskolin-stimulated cAMP assay, after confirming surface expression of each mutant by an ELISA-based surface expression assay (Appendix Fig. S5). Three independent experiments (with technical triplicates) were conducted for each mutant. The bar graphs represent the mean of ΔpEC50 values from each experiment, with error bars indicating SEM. Statistical analyses were performed using ordinary one-way ANOVA followed by Dunnett’s test, comparing to the wild-type response. ns (not significant, P > 0.05); *P < 0.05; **P < 0.01; ***P < 0.001. Source data are available online for this figure.
(§2) HEK293T cells were seeded at a density of 6 × 10^5 cells per well in a six-well cell culture plate (SPL) and co-transfected with expression plasmids encoding GloSensor™ and each NPFFR construct, using 1 µg to 4 µg of DNA per well according to the Lipofectamine™ 2000 Transfection Reagent (Invitrogen) protocol. After 48 h of incubation under standard conditions (37 °C, 5% CO2), the cells were detached using Accutase solution (Sigma-Aldrich) and washed with PBS. The cells were then pelleted by centrifugation, resuspended in CO2-independent medium (Gibco) supplemented with Firefly D-Luciferin (0.5 mg/ml, NanoLight), and distributed into a 96-well white plate (SPL). After a 2-hour incubation, serially diluted ligands and 0.5 μM forskolin were added to each well to detect ligand-induced signaling. Luminescence signals were measured using a Mithras LB940 instrument (Berthold) with a measurement time of 1 s per well.
(§3) Data from the GloSensor^TM cAMP signaling assays were analyzed using GraphPad Prism with a three-parameter logistic model to fit concentration-response curves for both wild-type (WT) and mutant receptors. Mutant expression levels and DNA amounts were adjusted to match WT conditions. ΔpEC50 values were calculated by subtracting the log EC50 of the WT receptor from that of each mutant. Results are presented as mean ± SEM from three independent biological replicates, each performed in duplicate or more. Error bars represent the SEM. Statistical significance was assessed using one-way ANOVA, followed by Dunnett’s tests comparisons to the WT receptor. Significance levels were reported as follows: ns (not significant, P > 0.05); *P < 0.05; **P < 0.01; ***P < 0.001.
(§4) Appendix Figure S5. GloSensorTM cAMP assays of mutants and wild-type NPFFR2.
(§5) The dose-response of cAMP assay data for each mutant (red) presented in Fig. 2B are compared against the wild-type NPFFR2 (blue). Each experiment was conducted after adjusting the mutant's expression level to that of the wild-type NPFFR2 (Appendix Fig. S3), and pcDNA3.1 was used to match the total amount of DNA transfected. Data points represent mean values from three independent experiments (each with technical triplicate), with error bars indicating SEM. Raw data were normalized to the vehicle -treated (0%) and 0.5 μM forskolin-treated (100%) responses.
(§6) (% of forskolin stimulation) […]

[2] = molecular target: T2, NPFFR2 mutants (Homo sapiens, UniProt Q9Y5X5, Q227A); assay: as above; settings: NPFFR2 Q1253.32A, HEK293T, three independent experiments
T2 construct: expressed in transfected cells; host or cells: HEK293T (pcDNA3.1 NPFFR2 mutants)
T2 sequence (Q9Y5X5 103-522 Q227A): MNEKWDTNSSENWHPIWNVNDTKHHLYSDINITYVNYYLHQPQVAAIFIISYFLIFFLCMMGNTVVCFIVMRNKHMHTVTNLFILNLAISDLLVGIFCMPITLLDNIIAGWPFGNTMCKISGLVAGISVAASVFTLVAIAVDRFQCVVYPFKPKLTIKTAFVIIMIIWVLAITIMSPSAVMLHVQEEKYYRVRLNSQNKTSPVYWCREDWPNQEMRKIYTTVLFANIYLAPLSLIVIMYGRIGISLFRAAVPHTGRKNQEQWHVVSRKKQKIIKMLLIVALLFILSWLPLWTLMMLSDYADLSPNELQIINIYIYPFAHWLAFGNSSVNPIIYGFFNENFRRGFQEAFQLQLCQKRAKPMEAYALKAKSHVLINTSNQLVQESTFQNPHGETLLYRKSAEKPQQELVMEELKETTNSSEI
From the text: as §1, §2, §3, §4, §5, §6

[3] = molecular target: T3, NPFFR2 mutants (Homo sapiens, UniProt Q9Y5X5, I414S); assay: as above; settings: NPFFR2 I3127.32S, HEK293T, three independent experiments
T3 construct: expressed in transfected cells; host or cells: HEK293T (pcDNA3.1 NPFFR2 mutants)
T3 sequence (Q9Y5X5 103-522 I414S): as the sequence (Q9Y5X5 103-522 Q227A) above, with A125Q, I312S counted along it
From the text: as §1, §2, §3, §4, §5, §6

[4] = molecular target: T4, NPFFR2 mutants (Homo sapiens, UniProt Q9Y5X5, V231A); assay: as above; settings: NPFFR2 V1293.36A, HEK293T, three independent experiments
T4 construct: expressed in transfected cells; host or cells: HEK293T (pcDNA3.1 NPFFR2 mutants)
T4 sequence (Q9Y5X5 103-522 V231A): as the sequence (Q9Y5X5 103-522 Q227A) above, with A125Q, V129A counted along it
From the text: as §1, §2, §3, §4, §5, §6

[5] = molecular target: T5, NPFFR2 mutants (Homo sapiens, UniProt Q9Y5X5, W213A); assay: as above; settings: NPFFR2 W11123.50A, HEK293T, three independent experiments
T5 construct: expressed in transfected cells; host or cells: HEK293T (pcDNA3.1 NPFFR2 mutants)
T5 sequence (Q9Y5X5 103-522 W213A): as the sequence (Q9Y5X5 103-522 Q227A) above, with W111A, A125Q counted along it
From the text: as §1, §2, §3, §4, §5, §6

[6] = molecular target: T6, NPFFR2 mutants (Homo sapiens, UniProt Q9Y5X5, R318A); assay: as above; settings: NPFFR2 R2165.35A, HEK293T, three independent experiments
T6 construct: expressed in transfected cells; host or cells: HEK293T (pcDNA3.1 NPFFR2 mutants)
T6 sequence (Q9Y5X5 103-522 R318A): as the sequence (Q9Y5X5 103-522 Q227A) above, with A125Q, R216A counted along it
From the text: as §1, §2, §3, §4, §5, §6

[7] = molecular target: T7, human NPFFR1 (Homo sapiens, UniProt Q9GZQ6); assay: GloSensor forskolin-stimulated cAMP assay, NPFFR1 wild-type; settings: NPFFR1 wild-type, HEK293T, 0.5 μM forskolin, three independent experiments
T7 construct: expressed in transfected cells; host or cells: HEK293T (pcDNA3.1 NPFFR1)
T7 sequence (Q9GZQ6 whole entry): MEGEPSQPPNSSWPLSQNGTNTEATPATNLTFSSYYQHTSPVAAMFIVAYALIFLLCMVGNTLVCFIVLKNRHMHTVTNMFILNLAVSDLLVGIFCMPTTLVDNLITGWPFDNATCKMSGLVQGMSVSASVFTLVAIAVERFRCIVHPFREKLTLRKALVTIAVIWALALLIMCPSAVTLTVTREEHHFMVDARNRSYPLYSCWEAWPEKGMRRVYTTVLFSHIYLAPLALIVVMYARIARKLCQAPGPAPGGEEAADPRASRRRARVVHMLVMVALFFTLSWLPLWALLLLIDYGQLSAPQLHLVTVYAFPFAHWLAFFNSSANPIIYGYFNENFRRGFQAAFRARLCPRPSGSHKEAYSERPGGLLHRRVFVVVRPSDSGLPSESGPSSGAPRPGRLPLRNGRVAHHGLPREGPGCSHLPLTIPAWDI
Experimental: Figure 4 RF-amide ligand selectivity of NPFFR2 and NPFFR1. […] Key residues at the fifth and sixth positions from the C-terminus, are highlighted in bold. […] (B) The concentration-dependent response of various agonists on NPFFR1 was measured using a forskolin-stimulated cAMP assay. Data points represent the mean values from three independent experiments (each with technical triplicate), with error bars indicating SEM. Raw data were normalized to the vehicle-treated (0%) and 0.5 μM forskolin-treated (100%) responses. (C) Structural comparison between the binding modes of hNPSF to NPFFR2 and GnIH to NPFFR1. An AlphaFold2 prediction model of the GnIH–NPFFR1 complex was generated using the hNPSF–NPFFR2 complex structure as a template. The hydrophobicity of NPFFRs is shown with surface representation, where purple indicates hydrophilic regions and bronze indicates hydrophobic regions. […] (D) The cAMP response to the ligands hNPSF and GnIH was measured for both wild-type NPFFR1 and a mutant form of NPFFR1 using a forskolin-stimulated cAMP assay. […] Symbols represent mean values from three independent experiments, each conducted in technical triplicates, with error bars indicating SEM. Responses were normalized to vehicle-treated controls (0%) and 0.5 μM forskolin-treated controls (100%). Source data are available online for this figure.
as §2, §3

T1 sequence (Q9Y5X5 103-522 D207A): as the sequence (Q9Y5X5 103-522 Q227A) above, with D105A, A125Q counted along it

CC(C)C[C@H](NC(=O)[C@H](Cc1ccccc1)NC(=O)[C@H](C)NC(=O)[C@H](CCC(N)=O)NC(=O)[C@@H](N)CO)C(=O)N[C@@H](Cc1ccccc1)C(=O)N[C@@H](CCC(N)=O)C(=O)N1CCC[C@H]1C(=O)N[C@@H](CCC(N)=O)C(=O)N[C@@H](CCCNC(=N)N)C(=O)N[C@@H](Cc1ccccc1)C(N)=O [hNPSF]
Emax ([1]; HEK-293T): 69 ± 4% | EC50 [1]: 12.6 nM | Emax ([2]; HEK-293T): 59 ± 4% | EC50 [2]: 1260 nM | Emax ([3]; HEK-293T): 75 ± 3% | EC50 [3]: 31.6 nM | Emax ([4]; HEK-293T): 79 ± 3% | EC50 [4]: 126 nM | Emax ([5]; HEK-293T): 78 ± 5% | EC50 [5]: 1260 nM | Emax ([6]; HEK-293T): 85 ± 3% | EC50 [6]: 10 nM | Emax ([7]; HEK-293T, read-out: Emax ± SEM): 83 ± 1% | EC50 ([7]; read-out: pEC50 ± SEM (converted)): 79.4 nM
